We go through 9 compounds from ChEMBL document CHEMBL1833956, “Potent and novel 11β-HSD1 inhibitors identified from shape and docking based virtual screening” (Bioorg Med Chem Lett, 2011).

The nature of data set [1]: Protein binding in plasma. The class given is ADME, cell-free. As to conditions: read-out: PPB; call rule not given here.
The species entered for data set [2] is Homo sapiens. Nature of the data set: Selectivity ratio of IC50 for human 11beta HSD2 to IC50 for human 11beta HSD1.
For data set [3], the target named is Cytochrome P450 2D6 (Homo sapiens, UniProt P10635). The data set is described as follows: Inhibition of CYP2D6 at 10 uM. The class given is ADME.
Chain of Cytochrome P450 2D6 (P10635 whole entry): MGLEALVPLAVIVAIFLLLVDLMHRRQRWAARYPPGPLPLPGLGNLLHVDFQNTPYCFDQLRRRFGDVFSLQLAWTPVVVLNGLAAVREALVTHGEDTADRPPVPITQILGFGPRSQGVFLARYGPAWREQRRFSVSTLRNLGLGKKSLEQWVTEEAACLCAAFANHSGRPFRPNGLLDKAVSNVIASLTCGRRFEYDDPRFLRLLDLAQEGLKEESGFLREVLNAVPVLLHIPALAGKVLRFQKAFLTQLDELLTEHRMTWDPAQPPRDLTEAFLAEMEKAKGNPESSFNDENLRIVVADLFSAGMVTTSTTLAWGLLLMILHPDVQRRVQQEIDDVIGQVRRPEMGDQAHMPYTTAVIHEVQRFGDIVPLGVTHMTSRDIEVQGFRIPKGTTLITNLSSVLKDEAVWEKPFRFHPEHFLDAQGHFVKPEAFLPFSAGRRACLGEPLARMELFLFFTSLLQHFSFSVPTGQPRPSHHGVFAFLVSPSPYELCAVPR
Data set [4] deals with CYP3A4 (Homo sapiens, UniProt P08684). The data set is described as follows: Inhibition of CYP3A4 in human liver microsomes using NADPH at 10 uM by LC-MS/MS analysis relative to control. The class given is ADME, Microsome. (Liver microsomes are a subcellular fraction often used to study metabolism.)
Chain of CYP3A4 (P08684 whole entry): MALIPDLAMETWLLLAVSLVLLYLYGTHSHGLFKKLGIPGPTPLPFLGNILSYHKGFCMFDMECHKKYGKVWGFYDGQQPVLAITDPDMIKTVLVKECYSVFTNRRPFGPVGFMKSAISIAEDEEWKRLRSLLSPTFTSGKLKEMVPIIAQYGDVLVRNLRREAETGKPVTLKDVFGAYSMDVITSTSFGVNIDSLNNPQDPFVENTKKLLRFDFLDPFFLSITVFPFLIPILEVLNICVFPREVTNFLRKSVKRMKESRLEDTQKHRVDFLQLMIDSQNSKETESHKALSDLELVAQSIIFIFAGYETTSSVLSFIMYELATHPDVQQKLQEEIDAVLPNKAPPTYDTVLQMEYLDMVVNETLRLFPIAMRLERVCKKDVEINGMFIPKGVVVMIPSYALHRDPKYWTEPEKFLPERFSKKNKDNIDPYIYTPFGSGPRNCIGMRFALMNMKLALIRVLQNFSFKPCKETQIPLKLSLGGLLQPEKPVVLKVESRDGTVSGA
Data set [5] addresses T1, 11-beta-hydroxysteroid dehydrogenase 1 (Homo sapiens, UniProt P28845). Nature of the data set: Inhibition of human 11beta HSD1 expressed in HEK293 cells assessed as assessed as inhibition of [1,2-(n)3H]cortisone to [3H]-cortisol after 60 mins by scintillation proximity assay. The class given is cell-based. Background: In a scintillation proximity assay essentially only radioactivity close to the scintillant gives light.
Target sequence in this assay (P28845 whole entry): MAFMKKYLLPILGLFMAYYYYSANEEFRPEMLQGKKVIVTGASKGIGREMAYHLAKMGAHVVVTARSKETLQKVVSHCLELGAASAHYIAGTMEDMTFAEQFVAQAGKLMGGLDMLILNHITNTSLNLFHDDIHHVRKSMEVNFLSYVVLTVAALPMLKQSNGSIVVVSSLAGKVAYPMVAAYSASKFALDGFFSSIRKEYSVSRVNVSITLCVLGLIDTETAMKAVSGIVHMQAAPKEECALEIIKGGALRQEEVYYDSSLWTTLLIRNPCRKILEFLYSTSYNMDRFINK

The target in data set [6] is T1, 11-beta-hydroxysteroid dehydrogenase 1. The data set is described as follows: Inhibition of human 11beta HSD1 expressed in HEK293 cells assessed as assessed as inhibition of [1,2-(n)3H]cortisone to [3H]-cortisol at 100 uM after 60 mins by scintillation proximity assay.
Target sequence in this assay (P28845 whole entry, looked up): as the sequence (P28845 whole entry) above
For data set [7], the target named is T2, 11-beta-hydroxysteroid dehydrogenase type 2 (Homo sapiens, UniProt P80365).
T2 sequence (P80365 whole entry): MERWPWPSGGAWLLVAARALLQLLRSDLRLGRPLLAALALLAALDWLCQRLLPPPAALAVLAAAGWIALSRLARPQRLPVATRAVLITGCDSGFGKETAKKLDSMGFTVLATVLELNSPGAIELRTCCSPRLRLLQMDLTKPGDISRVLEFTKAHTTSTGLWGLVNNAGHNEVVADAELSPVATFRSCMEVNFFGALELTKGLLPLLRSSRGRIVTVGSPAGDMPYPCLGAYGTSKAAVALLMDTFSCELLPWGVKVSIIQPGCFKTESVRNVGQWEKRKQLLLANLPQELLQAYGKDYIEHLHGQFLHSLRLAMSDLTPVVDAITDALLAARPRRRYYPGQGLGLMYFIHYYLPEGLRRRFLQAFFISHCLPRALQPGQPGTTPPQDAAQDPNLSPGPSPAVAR
The data set is described as follows: Inhibition of human 11beta HSD2.

As a reminder, the inhibition is the percentage by which the read-out fell short of the control. One may read the IC50 as the concentration needed to halve the response being measured. Regarding `CN(Cc1ccccc1)S(=O)(=O)c1ccc(Oc2cccc(Cl)c2C#N)cc1`, the fraction unbound in data set [1] is at most 0.05. Besides, the Ratio IC50 in data set [2] was 2420. In data set [3], the “inhibition (INH)” value is “Not Active”. In data set [4], at 10 µM the inhibition was 17%. Further, the IC50 in data set [5] was found to be 41.3 nM. Moreover, the inhibition in data set [6] is below 50%.
As for `N#C/C(=C\c1ccc2c(c1)CCO2)S(=O)(=O)c1ccc(Cl)cc1Cl`, the fraction unbound in data set [1] is at most 0.05. Besides, the “inhibition (INH)” value in data set [3] is on record as “Not Active”. Moreover, in data set [4], the inhibition at 10 µM amounted to 26%.
On to `Fc1cccc(Cl)c1CSc1nnc(-c2ccco2)n1-c1ccc(OCc2ccccc2)cc1`, for which, in data set [1], the fraction unbound was at most 0.05. The “inhibition (INH)” value in data set [3] is listed as “Not Active”. The compound further yielded an inhibition at 10 µM in data set [4] of 73%.
Regarding `O=C(CSc1nnc(-c2ccccc2)c(-c2ccccc2)n1)N1CCc2ccccc21`, the fraction unbound in data set [1] is at most 0.05. Also, the Ratio IC50 in data set [2] was 200. The IC50 in data set [7] turned out to be 8.9 µM; in data set [5], 58.1 nM. The “inhibition (INH)” value in data set [3] is “Active”. Further, at 10 µM the inhibition in data set [4] was 36%.
`O=S(=O)(Nc1cccc(CCc2ccccn2)c1)c1cc(Cl)ccc1Cl`: the fraction unbound in data set [1] was at most 0.1. Also, the “inhibition (INH)” value in data set [3] is “Active”. In data set [4], this compound showed an inhibition at 10 µM of 82%. Further, the IC50 in data set [5] came out at 102 nM.
For `O=S(=O)(c1ccc2ccccc2c1)N1CCN(c2ncc(C(F)(F)F)cc2Cl)CC1`, the fraction unbound in data set [1] was at most 0.1. The “inhibition (INH)” value in data set [3] is given as “Not Active”. This compound also came in with an inhibition at 10 µM in data set [4] of 13%.
On the same counts, the results for `O=S(=O)(c1ccc2ccccc2c1)N1CCCN(Cc2c(F)cccc2Cl)CC1` are at most 0.1, “Not Active” and 26%.
`O=S(=O)(c1ccc2ccccc2c1)N1CC=C(c2ccccc2)CC1`: the fraction unbound in data set [1] is at most 0.05. Further, in data set [3], the “inhibition (INH)” value was “Not Active”. This compound also registered an inhibition at 10 µM in data set [4] of 14%.
On to `CCN(CC)C(=O)Cc1csc(NS(=O)(=O)c2cccc(Cl)c2C)n1`, for which the IC50 in data set [5] worked out at 28.4 nM.
